According to ChEMBL document CHEMBL3997845, “Identification of a novel hormone sensitive lipase inhibitor with a reduced potential of reactive metabolites formation” (Bioorg Med Chem, 2017):
Activity calls are given as the source filed them. The rule behind the calls is not given here.

Columns and labels:
Rattus norvegicus [1] = assay: Antilipolytic activity in Wistar rat assessed as reduction in plasma glycerol AUC (0 to 7 hrs) at 10 mg/kg, po; assay type: functional, organism-based
[2] = AUC (0 to 7 hrs) in Wistar rat at 3 mg/kg, po by LC-MS/MS analysis; assay type: ADME, organism-based; parameters: dose 3 mg/kg, time < 7 hr, route oral; settings: in vivo
Rattus norvegicus [3] = assay: Antilipolytic activity in Wistar rat assessed as reduction in plasma glycerol AUC (0 to 7 hrs) at 3 mg/kg, po relative to control; assay type: functional; parameters: scale not given: the % may be the effect or the level left
[4] = Cmax in Wistar rat at 3 mg/kg, po by LC-MS/MS analysis; assay type: ADME, organism-based; parameters: dose 3 mg/kg, route oral; settings: in vivo
[5] = Metabolic stability in rat liver microsomes assessed as parent compound remaining at 1 uM after 30 mins in presence of NADPH generating system by LC-MS/MS analysis; assay type: ADME, microsome; settings: read-out: Stability
Liver = assay: Drug level in human liver microsomes treated with 2-(4-(5-(trifluoromethyl)pyridin-2-yloxy)benzyloxy)phenylboronic acid at 500 uM after 60 mins in presence of [13C2,15N-Gly]GSH and NADPH generating system by LC-MS/MS analysis; assay type: ADME, microsome; settings: 1 h

For `O=C(Oc1ccc(Oc2ccc(C(F)(F)F)cn2)cc1)N1CCC(O)CC1`, which Activity (Rattus norvegicus [1]) is on record?
The Activity was “Active”.

What does the source list for `O=C(Nc1ccc(Cl)cc1B(O)O)c1ccc(Oc2ccc(C(F)(F)F)cc2)nc1`?
AUC(0-t) at 7 h [2]: 19600 ng·h/mL; Activity (Rattus norvegicus [3]): 17%; Cmax [4]: 3350 ng/mL; remaining at 0.5 h, 1 µM [5]: 81%

For `O=C(O)CNC(=O)C1CSC(c2ccc(Oc3ccc(C(F)(F)F)cn3)cc2)N1` (stereo unspecified), which Drug metabolism (Liver) is on record?
The Drug metabolism was “Metabolite_Detected”.
